In patent publication US8324246B2, “Indol carboxylic acid bispyridyl carboxamide derivatives, pharmaceutically acceptable salt thereof, preparation method and composition containing the same as an active ingredient” (Korea Research Institute of Chemical Technology, priority 2008, dated 2012) one finds IC50 and melting point data, which are given here for 24 molecules.

Like-named read-outs stand apart in the source and are kept apart here.

In data set [1] the target is T1, human gene recombinant 5-HT2c receptor expressed in CHO-K1 cell (Homo sapiens, UniProt P28335).
T1 construct: purchased Euroscreen, Belgium; host or cells: CHO-K1
T1 sequence (P28335 33-458): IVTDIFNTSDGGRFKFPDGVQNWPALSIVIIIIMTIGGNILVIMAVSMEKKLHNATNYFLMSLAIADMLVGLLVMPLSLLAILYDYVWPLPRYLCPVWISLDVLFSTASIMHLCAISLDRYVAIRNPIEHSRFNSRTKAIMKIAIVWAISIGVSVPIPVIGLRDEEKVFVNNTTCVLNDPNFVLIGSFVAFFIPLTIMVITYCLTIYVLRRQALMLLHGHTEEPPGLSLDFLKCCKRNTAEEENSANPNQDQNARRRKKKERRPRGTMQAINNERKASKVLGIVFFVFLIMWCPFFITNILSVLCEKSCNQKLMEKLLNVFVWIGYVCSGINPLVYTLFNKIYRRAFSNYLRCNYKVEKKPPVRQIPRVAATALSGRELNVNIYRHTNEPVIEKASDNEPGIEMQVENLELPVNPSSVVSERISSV
The data set is described as follows: Binding affinity to the serotonin 5-HT2c receptor ([3H]mesulergine). The method, then:
As a receptor, a human gene recombinant 5-HT2c receptor expressed in CHO—K1 cell was purchased from Euroscreen, Belgium and used in the experiment, and as a radioactive isotope, [3H]mesulergine (Amersham Biosciences, UK).
A final volume of 0.25 ml reaction mixture was prepared by adding 50 mM Tris-HCl buffer (pH 7.7) containing one of the compounds in Examples 1-29 or Comparative Examples 1-2, 1 nM of [3H]mesulergine, 5-HT2c receptor membranes (4 D/well), 0.1% ascorbic acid and 10 µM pargyline, and incubated at 37° C. for 30 minutes. After incubation, the reaction was terminated by the rapid filtration using an Inotech harvester (Inotech) through a Wallace GF/C glass fiber filter (Wallac, Finland) which was presoaked in 1% BSA, and then washed with ice-cold 50 mM Tris-HCl buffer. The filter was covered with MeltiLex, sealed in a sample bag followed by drying in the oven, and counted by MicroBeta Plus (Wallac). Non-specific binding was determined in the presence of […] Mianserin. Three repeating experiments were carried out with 7-8 concentrations of the compound in Examples 1-29 or the compound in comparative examples 1-2, run in duplicate tubes, and isotherms from the three assays were calculated by a nonlinear regression analysis (GraphPad Prism Program, San Diego, USA) to yield IC50 values.

For the next data set, the target named is 5-HT7 (Homo sapiens, UniProt P34969). Nature of the data set: Receptor selectivity binding, 5-HT7. Conditions: Table 3. The protocol:
(§1) For their high binding affinities for 5-HT2c, compounds in Examples 14 to 18, 20, and 22 or in Comparative Example 1 were used for the experiment with reaction mixtures. Except that CNS receptors such as 5-HT1a, 5-HT2a, 5-HT7, D2, D3 or D4 other than 5-HT2c were used as a receptor, IC50 values (nM) were measured in the same manner as in Experimental Example 1.

Another data set deals with T2, 5-HT1a (Homo sapiens, UniProt P08908).
T2 sequence (P08908 1-422): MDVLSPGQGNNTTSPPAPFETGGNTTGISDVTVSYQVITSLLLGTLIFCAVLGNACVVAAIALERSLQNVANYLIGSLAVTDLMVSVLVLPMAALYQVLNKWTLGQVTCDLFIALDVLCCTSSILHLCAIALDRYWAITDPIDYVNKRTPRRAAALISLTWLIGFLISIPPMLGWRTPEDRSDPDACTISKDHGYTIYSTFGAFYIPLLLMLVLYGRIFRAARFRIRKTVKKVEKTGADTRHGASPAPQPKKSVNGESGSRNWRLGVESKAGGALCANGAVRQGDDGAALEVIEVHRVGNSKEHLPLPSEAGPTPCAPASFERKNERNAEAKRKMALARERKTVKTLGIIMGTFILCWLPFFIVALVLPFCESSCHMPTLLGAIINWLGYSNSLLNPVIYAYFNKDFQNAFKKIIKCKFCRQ
The data set is described as follows: Receptor selectivity binding, 5-HT1a. Conditions: Table 3. The protocol: as §1

The target of a further data set is T3, D4 (Homo sapiens, UniProt P21917).
T3 sequence (P21917 1-419): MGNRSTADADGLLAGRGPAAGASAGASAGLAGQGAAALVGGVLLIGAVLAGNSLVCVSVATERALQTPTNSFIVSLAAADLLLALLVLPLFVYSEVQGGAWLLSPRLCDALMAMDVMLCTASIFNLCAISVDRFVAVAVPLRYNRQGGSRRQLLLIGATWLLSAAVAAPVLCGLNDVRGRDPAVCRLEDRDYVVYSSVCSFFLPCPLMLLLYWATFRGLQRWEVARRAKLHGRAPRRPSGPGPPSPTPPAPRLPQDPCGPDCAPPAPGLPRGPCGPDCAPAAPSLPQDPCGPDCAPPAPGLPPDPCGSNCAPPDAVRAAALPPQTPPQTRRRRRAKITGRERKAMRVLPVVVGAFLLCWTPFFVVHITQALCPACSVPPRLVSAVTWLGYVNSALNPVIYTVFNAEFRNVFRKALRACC
The data set is described as follows: Receptor selectivity binding, D4. Conditions: Table 3. The method, then: as §1

In a further data set the target is D3 (Homo sapiens, UniProt P35462). The data set is described as follows: Receptor selectivity binding, D3. Conditions: Table 3. The method, then:
as §1

A further data set has as its target 5-HT2a (Homo sapiens, UniProt P28223). The data set is described as follows: Receptor selectivity binding, 5-HT2a. Conditions: Table 3. The protocol: as §1
In another data set the target is 5-HT6 (Homo sapiens, UniProt P50406). Nature of the data set: Receptor selectivity binding, 5-HT6. The settings on record: Table 3. The method, then: as §1
For another data set, the target named is D2 (Homo sapiens, UniProt P14416). Nature of the data set: Receptor selectivity binding, D2. The settings on record: Table 3. The method, then:
as §1

The mark [2] stands for this setting: [3H]mesulergine 1 nM, 37° C. 30 minutes, Table 2, read-out: IC50.

Sequence of 5-HT6 (P50406 whole entry, species assumed): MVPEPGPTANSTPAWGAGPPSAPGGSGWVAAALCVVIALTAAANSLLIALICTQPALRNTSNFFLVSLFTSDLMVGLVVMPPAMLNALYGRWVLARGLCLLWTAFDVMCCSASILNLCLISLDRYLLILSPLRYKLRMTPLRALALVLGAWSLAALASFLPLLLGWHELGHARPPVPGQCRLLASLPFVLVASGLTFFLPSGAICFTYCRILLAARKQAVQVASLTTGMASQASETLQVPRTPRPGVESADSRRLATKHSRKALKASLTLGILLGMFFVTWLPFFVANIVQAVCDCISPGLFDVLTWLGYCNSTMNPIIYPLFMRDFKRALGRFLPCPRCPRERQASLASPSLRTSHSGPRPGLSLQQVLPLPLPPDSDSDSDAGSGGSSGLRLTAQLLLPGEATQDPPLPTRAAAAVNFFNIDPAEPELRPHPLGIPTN
Sequence of D3 (P35462 whole entry): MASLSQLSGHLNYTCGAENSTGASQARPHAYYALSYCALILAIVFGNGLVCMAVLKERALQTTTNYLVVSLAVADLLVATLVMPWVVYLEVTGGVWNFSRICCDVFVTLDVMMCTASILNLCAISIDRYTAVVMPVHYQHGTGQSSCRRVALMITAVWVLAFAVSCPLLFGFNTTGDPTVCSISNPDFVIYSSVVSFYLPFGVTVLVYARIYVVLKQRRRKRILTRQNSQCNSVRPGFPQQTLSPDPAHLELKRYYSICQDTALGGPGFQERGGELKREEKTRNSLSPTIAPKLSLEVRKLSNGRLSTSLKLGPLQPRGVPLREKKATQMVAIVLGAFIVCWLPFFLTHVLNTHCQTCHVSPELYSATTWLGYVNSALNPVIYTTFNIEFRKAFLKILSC
Sequence of 5-HT2a (P28223 whole entry, species assumed): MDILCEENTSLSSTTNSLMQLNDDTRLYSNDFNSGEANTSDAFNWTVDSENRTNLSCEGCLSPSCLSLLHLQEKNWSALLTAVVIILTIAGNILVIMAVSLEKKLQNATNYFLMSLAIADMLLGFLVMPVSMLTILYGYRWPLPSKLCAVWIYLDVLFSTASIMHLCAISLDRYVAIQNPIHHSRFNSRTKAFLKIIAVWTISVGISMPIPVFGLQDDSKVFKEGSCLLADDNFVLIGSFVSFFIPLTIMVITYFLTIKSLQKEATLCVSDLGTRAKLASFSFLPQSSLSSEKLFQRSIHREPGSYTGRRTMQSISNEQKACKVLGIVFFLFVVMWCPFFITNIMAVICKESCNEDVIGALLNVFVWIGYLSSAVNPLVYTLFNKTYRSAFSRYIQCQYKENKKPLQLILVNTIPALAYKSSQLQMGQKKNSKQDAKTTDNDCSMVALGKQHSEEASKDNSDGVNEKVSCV
Sequence of D2 (P14416 whole entry): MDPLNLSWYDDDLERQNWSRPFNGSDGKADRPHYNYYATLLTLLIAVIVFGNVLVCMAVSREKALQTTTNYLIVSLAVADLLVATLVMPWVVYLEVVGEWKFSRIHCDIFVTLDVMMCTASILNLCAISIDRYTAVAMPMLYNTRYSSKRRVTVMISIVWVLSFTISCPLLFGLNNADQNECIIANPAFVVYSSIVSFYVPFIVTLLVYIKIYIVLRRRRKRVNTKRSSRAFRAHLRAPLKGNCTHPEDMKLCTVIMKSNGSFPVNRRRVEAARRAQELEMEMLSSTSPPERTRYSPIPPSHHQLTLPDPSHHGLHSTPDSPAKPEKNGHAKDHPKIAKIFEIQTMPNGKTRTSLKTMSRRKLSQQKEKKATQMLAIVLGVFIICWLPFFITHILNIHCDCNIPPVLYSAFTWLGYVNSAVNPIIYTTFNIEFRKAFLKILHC
Sequence of 5-HT7 (P34969 whole entry, species assumed): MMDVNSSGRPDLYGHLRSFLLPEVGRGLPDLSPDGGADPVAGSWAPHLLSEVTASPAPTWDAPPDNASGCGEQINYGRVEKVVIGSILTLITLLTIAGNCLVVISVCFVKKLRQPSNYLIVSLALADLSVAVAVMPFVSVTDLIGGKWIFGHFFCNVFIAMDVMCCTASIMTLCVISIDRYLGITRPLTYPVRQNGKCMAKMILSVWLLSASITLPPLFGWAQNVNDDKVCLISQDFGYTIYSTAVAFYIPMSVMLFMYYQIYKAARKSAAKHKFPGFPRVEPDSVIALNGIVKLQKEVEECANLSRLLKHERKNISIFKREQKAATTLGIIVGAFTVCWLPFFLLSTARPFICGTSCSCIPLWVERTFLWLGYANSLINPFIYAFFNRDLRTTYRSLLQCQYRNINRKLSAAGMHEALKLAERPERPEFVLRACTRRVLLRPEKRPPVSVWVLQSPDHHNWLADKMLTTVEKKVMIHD

As usually defined, the IC50 is the midpoint of a concentration-inhibition curve. On to “1H-indole-2-carboxylic acid[6-(2-methyl-pyridine-3-yloxy)-pyridine-3-yl]-amide [Example 5]”, for which the concentration for half-maximal inhibition (IC50) in data set [1] (setting [2]) was determined as 59 nM.

As for `Cc1cc2c(cc1C(F)(F)F)N(C(=O)Nc1ccc(Oc3cccnc3C)nc1)CC2` [Comparative Example 1, SB-243213, reference compound], the half-inhibitory concentration (IC50) on 5-HT7 is above 1000 nM; in data set [1] (Table 3, read-out: IC50 5-HT2c), 0.7 nM; in data set [1] (setting [2]), 0.7 nM; at 5-HT1a it was above 1000 nM; on D4, above 10000 nM; on D3, above 1000 nM. For the same molecule, the figures for the IC50 at 5-HT2a, on 5-HT6 and on D2 were 32.4 nM, 667 nM and above 1000 nM, respectively.

For orientation: melting point means the temperature of the solid-liquid transition. Regarding `Cc1cc2c(cc1C(F)(F)F)N(C(=O)Nc1ccc(OCc3ccccn3)nc1)CC2` [Comparative Example 2, SB-247853], the melting point is 220 to 222 °C. The half-inhibitory concentration (IC50) in data set [1] (setting [2]) turned out to be 1.3 nM.

Molecule `Cc1ncccc1Oc1ccc(NS(=O)(=O)c2coc3ccccc23)cn1` [Example 1, benzofuran-3-sulfonic acid[6-(2-methyl-pyridine-3-yloxy)-pyridine-3-yl]-amide] yielded a melting point of 128 to 129 °C. For the same molecule, the IC50 in [1] (setting [2]) is 321 nM.

As for `Cc1ncccc1Oc1ccc(NS(=O)(=O)c2csc3ccccc23)cn1` [Example 2, benzo[b]thiophene-3-sulfonic acid[6-(2-methyl-pyridine-3-yloxy)-pyridine-3-yl]-amide], the melting point was in the range of 93 to 95 °C. The IC50 in data set [1] (setting [2]) came to 572 nM.

The molecule `Cc1ncccc1Oc1ccc(NC(=O)c2coc3ccccc23)cn1` [Example 3, benzofuran-3-carboxylic acid[6-(2-methyl-pyridine-3-yloxy)-pyridine-3-yl]-amide] yielded a melting point of 52 to 55 °C. For the same molecule, the IC50 in data set [1] (setting [2]) was 167 nM.

Turning to `Cc1ncccc1Oc1ccc(NC(=O)c2csc3ccccc23)cn1` [Example 4, benzo[b]thiophene-3-carboxylic acid[6-(2-methyl-pyridine-3-yloxy)-pyridine-3-yl]-amide], the melting point lay within 81 to 83 °C. For the same molecule, the IC50 in [1] (setting [2]) was 50 nM.

In turn, `Cc1ncccc1Oc1ccc(NC(=O)c2c[nH]c3ccccc23)cn1` [Example 6, 1H-indole-3-carboxylic acid[6-(2-methyl-pyridine-3-yloxy)-pyridine-3-yl]-amide] came in with a melting point of 108 to 110 °C. Besides, the 50% inhibitory concentration (IC50) in [1] (setting [2]) was 67 nM.

In turn, `Cc1ncccc1Oc1ccc(NC(=O)c2nc3ccccc3[nH]2)cn1` [Example 7, 1H-benzoimidazole-2-carboxylic acid[6-(2-methyl-pyridine-3-yloxy)-pyridine-3-yl]-amide] had a melting point of 191 to 193 °C. Further, the concentration for half-maximal inhibition (IC50) in [1] (setting [2]) was above 10000 nM.

For the molecule `Cc1ncccc1Oc1ccc(NC(=O)c2ccc3ccccc3c2)cn1` [Example 8, naphthalene-2-carboxylic acid[6-(2-methyl-pyridine-3-yloxy)-pyridine-3-yl]-amide], the melting point was in the range of 156 to 158 °C. Besides, the half-inhibitory concentration (IC50) in data set [1] (setting [2]) is 302 nM.

On to `Cc1ncccc1Oc1ccc(NCc2c[nH]c3ccccc23)cn1` [Example 9, (1H-indole-3-ylmethyl)-[6-(2-methyl-pyridine-3-yloxy)-pyridine-3-yl]-amine], for which the concentration for half-maximal inhibition (IC50) in [1] (setting [2]) is above 10000 nM.

On to `Cc1ncccc1Oc1ccc(NC(=S)c2c[nH]c3ccccc23)cn1` [Example 10], for which the half-inhibitory concentration (IC50) in [1] (setting [2]) is 23 nM.

Consider `Cc1ncccc1Oc1ccc(NC(=O)c2cn(C)c3ccccc23)cn1` [Example 11, 1-methyl-1H-indole-3-carboxylid acid[6-(2-methyl-pyridine-3-yloxy)-pyridine-3-yl]-amide], for which the IC50 in [1] (setting [2]) came to 474 nM.

For `Cc1ncccc1Oc1ccc(N(C)C(=O)c2c[nH]c3ccccc23)cn1` [Example 12, 1H-indole-3-carboxylic acid methyl-[6-(2-methyl-pyridine-3-yloxy)-pyridine-3-yl]-amide], the IC50 in data set [1] (setting [2]) was found to be 9440 nM.

With `Cc1ncccc1Oc1ccc(N(C)C(=O)c2cn(C)c3ccccc23)cn1` [Example 13, 1-methyl-1H-indole-3-carboxylic acid methyl-[6-(2-methyl-pyridine-3-yloxy)-pyridine-3-yl]-amide], in [1] (setting [2]), the 50% inhibitory concentration (IC50) amounted to 6370 nM.

With `O=C(Nc1ccc(Oc2cncnc2)nc1)c1c[nH]c2ccccc12` [Example 19, 1H-indole-3-carboxylic acid[6-(pyrimidin-5-yloxy)-pyridine-3-yl]-amide], in data set [1] (setting [2]), the IC50 worked out at 50 nM.

With `Cc1ccc(Oc2ccc(NC(=O)c3c[nH]c4ccccc34)cn2)cn1` [Example 21, 1H-indole-3-carboxylic acid[6-(6-methyl-pyridine-3-yloxy)-pyridine-3-yl]-amide], the IC50 in data set [1] (setting [2]) came to 2250 nM.

With `O=C(Nc1ccc(Oc2cccnc2Br)nc1)c1c[nH]c2ccccc12` [Example 23, 1H-indole-3-carboxylic acid[6-(2-bromo-pyridine-3-yloxy)-pyridine-3-yl]-amide], in data set [1] (setting [2]), the IC50 is 106 nM.

Regarding `O=C(Nc1ccc(Oc2cccnc2)nc1)c1c[nH]c2ccccc12` [Example 24, 1H-indole-3-carboxylic acid[6-(pyridine-3-yloxy)-pyridine-3-yl]-amide], in data set [1] (setting [2]), the IC50 was 1.6 nM.

In the case of `O=C(Nc1ccc(Oc2ccccc2)nc1)c1c[nH]c2ccccc12` [Example 25, 1H-indole-3-carboxylic acid(6-phenoxy-pyridine-3-yl)-amide], the IC50 in data set [1] (setting [2]) is 542 nM.

With `O=C(Nc1cccnc1)c1c[nH]c2ccccc12` [Example 26, 1H-indole-3-carboxylic acid pyridine-3-ylamide], the IC50 in data set [1] (setting [2]) was above 1000 nM.

For `O=C(Nc1ccc(-c2cccnc2)cc1)c1c[nH]c2ccccc12` [Example 27, 1H-indole-3-carboxylic acid (4-pyridine-3-yl-phenyl)-amide], the half-inhibitory concentration (IC50) in [1] (setting [2]) is 214 nM.

In the case of `Cc1ccc2c(C(=O)Nc3ccc(Oc4cccnc4Cl)nc3)c[nH]c2c1` [Example 28, 6-methyl-1H-indole-3-carboxylic acid[6-(2-chloro-pyridine-3-yloxy)-pyridine-3-yl]-amide], the half-maximal inhibitory concentration (IC50) in [1] (setting [2]) was 7 nM.

Turning to `COc1nc(OC)nc(Oc2ccc(NC(=O)c3c[nH]c4ccccc34)cc2)n1` [Example 29, 1H-indole-3-carboxylic acid[4-(4,6-dimethoxy-[1,3,5]triazine-2-ylxoxy)-phenyl]-amide], the IC50 in [1] (setting [2]) is above 10000 nM.
